Molecular target: nCDase (Homo sapiens, UniProt Q9NR71)
Assay: manual RBM-ceramide assay with fresh compounds
Assay type: biochemical
Details: dose titration

Sequence of nCDase (Q9NR71 99-780 limits assumed): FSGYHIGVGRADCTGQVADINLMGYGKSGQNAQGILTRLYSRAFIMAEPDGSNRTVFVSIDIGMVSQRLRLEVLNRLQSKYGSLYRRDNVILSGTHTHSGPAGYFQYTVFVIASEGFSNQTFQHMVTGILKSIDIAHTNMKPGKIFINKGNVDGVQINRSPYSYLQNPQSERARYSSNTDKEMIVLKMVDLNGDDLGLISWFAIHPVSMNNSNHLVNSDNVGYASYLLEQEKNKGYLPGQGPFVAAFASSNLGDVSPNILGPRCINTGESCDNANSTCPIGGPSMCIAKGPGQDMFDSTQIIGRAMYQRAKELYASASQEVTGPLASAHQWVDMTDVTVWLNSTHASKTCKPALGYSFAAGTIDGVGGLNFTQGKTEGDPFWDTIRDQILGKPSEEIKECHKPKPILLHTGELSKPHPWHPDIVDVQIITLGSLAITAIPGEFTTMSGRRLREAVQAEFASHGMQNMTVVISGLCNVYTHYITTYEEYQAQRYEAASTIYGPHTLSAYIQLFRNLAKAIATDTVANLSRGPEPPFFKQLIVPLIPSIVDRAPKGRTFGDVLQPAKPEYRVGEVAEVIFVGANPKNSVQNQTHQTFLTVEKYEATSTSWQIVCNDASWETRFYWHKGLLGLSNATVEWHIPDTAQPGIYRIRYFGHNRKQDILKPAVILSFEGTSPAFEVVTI

**Q.** How did the IC50 turn out when CC(/C=C/C(=O)NO)=C\[C@@H](C)C(=O)c1ccc(N(C)C)cc1 [TSA, Trichostatin A] was run?
**A.** The IC50 was 4 µM.

From article PMC7749003 (SLAS discovery : advancing life sciences R & D, 2020)
